Literature values, collected in patent US10583154B2, “Multi-dose compositions containing an antimicrobial polyamide or octenidine preservative” (priority 2016, dated 2020).

Assays:
Details in all cases: cited from earlier work
Pseudomonas aeruginosa = test system: Pseudomonas aeruginosa
Aspergillus niger = test system: Aspergillus niger
Candida albicans = test system: Candida albicans
E. coli = test system: E. coli
Staphylococcus aureus = test system: Staphylococcus aureus

For `C[CH2][Hg][S]c1ccccc1C(=O)[O-].[Na+]` [thimerosal], the “Minimum Inhibitory Concentration (MIC)” value (Pseudomonas aeruginosa) is listed as 4 to 8 µg/mL, the “Minimum Inhibitory Concentration (MIC)” value (Aspergillus niger) is listed as 128 µg/mL and the “Minimum Inhibitory Concentration (MIC)” value (Candida albicans) is listed as 32 µg/mL. The “Minimum Inhibitory Concentration (MIC)” value (E. coli) was 4 to 8 µg/mL and the “Minimum Inhibitory Concentration (MIC)” value (Staphylococcus aureus) was 0.2 µg/mL.
